From patent EP0343398A2, “7-Substituted quinolone- and naphthyridinecarboxylic acid derivatives” (BAYER AG, priority 1988, dated 1989) come the findings set out here.

Values after ≈ are worked out from the molar mass of the structure shown. A value given as a limit tells only on which side of the number the result lay.

What all share (test): MIC determination (MHK-Werte), comparison with Ciprofloxacin
Holding throughout (format): cell-based

For assay [1], the system named is Staph. 1756.
For assay [2], the system named is E.coli Neumann. As to conditions: for MIC: Escherichia coli.
Assay [3] relates to Enterco. 9790.
For assay [4], the system named is Pseudo-monas Ellsworth.
Assay [5] has as its system Staph. 133.
In assay [6] the test system is Enteroc. 27101.
Assay [7] deals with Pseudo-monas Walter.
Assay [8] deals with Staph. FK422.

Turning to `CCOC(=O)c1cn(C2CC2)c2cc(-c3ccccc3)c(F)cc2c1=O` [Beispiel 1, 1-Cyclopropyl-6-fluor-1,4-dihydro-4-oxo-7-phenyl-3-chinolincarbonsäure-ethylester], the MHK-Werte was 0,062 µg/ml in assay [1]; 0,062 µg/ml in assay [2]; 0,125 µg/ml in assay [3]; 0,25 µg/ml in assay [4]; 0,062 µg/ml in assay [5]; 0,062 µg/ml in assay [6]. Besides, the MHK-Werte in assay [7] is reported as 0,5 µg/ml; in assay [8] it was ≤0,015 µg/ml.

As for `O=C(O)c1cn(C2CC2)c2cc(-c3ccc4ccccc4c3)c(F)cc2c1=O` [Beispiel 14], the results for the MIC in assay [2], in assay [4] and in assay [7] were 0.062 µg/mL (≈ 0.166 µM), 0.25 µg/mL (≈ 0.67 µM) and 1 µg/mL (≈ 2.68 µM), respectively.

In the case of `O=C(O)c1cn(C2CC2)c2cc(-c3cccnc3)c(F)cc2c1=O` [Beispiel 16], the minimal inhibitory concentration (MIC) is not above 0.015 µg/mL in assay [2] and 0.5 µg/mL (≈ 1.54 µM) in assay [7].

In assay [2], `NCc1ccc(-c2cc3c(cc2F)c(=O)c(C(=O)O)cn3C2CC2)cc1` [Beispiel 20, 7-(4-Aminomethylphenyl)-1-cyclopropyl-6-fluor-1,4-dihydro-4-oxo-3-chinolincarbonsäure] registered an MIC not above 0.015 µg/mL.

As to `O=C(O)c1cn(C2CC2)c2cc(N3CCNCC3)c(F)cc2c1=O` [Ciprofloxacin, reference compound], the MIC in assay [1] is 0.25 µg/mL (≈ 0.754 µM); in assay [2], not above 0.015 µg/mL; in assay [3], 0.25 µg/mL (≈ 0.754 µM); in assay [5] it was 0.25 µg/mL (≈ 0.754 µM); in assay [6], 0.25 µg/mL (≈ 0.754 µM); in assay [7], 0.25 µg/mL (≈ 0.754 µM). In addition, inhibition of growth in assay [8] (MIC) required 0.25 µg/mL (≈ 0.754 µM).
